Measured values: PubChem BioAssay AID1963422 (Molecular Pharmacology Branch, DTP, NCI, 2024)

System: 463943-066-T-J2-PDC complex spheroid growth
Test: Anticancer human tumor 463943-066-T-J2-PDC patient-derived colon adenocarcinoma cell line growth inhibition [Asc]
Conditions: for IC50: curve of first compound; for viability, T/C: stronger effect = lower value; active = viability on the fitted dose curve at most 10% of control; inactive = the rest
Summary of the method: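 Spheroid model: tumor line + HUVEC + hMSC. Single agents and combinations; top conc. at/near clinical Cmax (10 microM if undetermined), half-log dilutions. DMSO stocks at 800-fold test concentration.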
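Also: compound exposure lasted 7 days.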
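For viability, T/C in this document: 100% = DMSO vehicle control wells.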

NC(=O)C(=Cn1cnc(-c2cc(C(F)(F)F)cc(C(F)(F)F)c2)n1)c1cncnc1 + Cc1c(S(C)(=O)=O)c(-c2cc(F)cc(N3CCN(c4ccc(NS(=O)(=O)c5ccc(NC(CCN6CCC(C(=O)OCCCP(=O)(O)O)CC6)CSc6ccccc6)c(S(=O)(=O)C(F)(F)F)c5)cc4)CC3)c2)c(-c2ccc(Cl)cc2)n1C(C)C
inactive: viability, T/C (second compound 0.0316 µM, first compound 0.000949 µM) 96.5% | viability, T/C (second compound 0.0316 µM, first compound 0.003 µM) 97% | viability, T/C (second compound 0.0316 µM, first compound 0.00949 µM) 84.1% | viability, T/C (second compound 0.0316 µM, first compound 0.03 µM) 89.1% | viability, T/C (second compound 0.0316 µM, first compound 0.0949 µM) 86% | viability, T/C (second compound 0.0316 µM, first compound 0.3 µM) 72.3% | viability, T/C (second compound 0.1 µM, first compound 0.000949 µM) 93.9% | viability, T/C (second compound 0.1 µM, first compound 0.003 µM) 88.4% | viability, T/C (second compound 0.1 µM, first compound 0.00949 µM) 84.4% | viability, T/C (second compound 0.1 µM, first compound 0.03 µM) 80.7% | viability, T/C (second compound 0.1 µM, first compound 0.0949 µM) 81.8% | viability, T/C (second compound 0.1 µM, first compound 0.3 µM) 69.5% | viability, T/C (second compound 0.316 µM, first compound 0.000949 µM) 83.5% | viability, T/C (second compound 0.316 µM, first compound 0.003 µM) 90.7% | viability, T/C (second compound 0.316 µM, first compound 0.00949 µM) 75.2% | viability, T/C (second compound 0.316 µM, first compound 0.03 µM) 78.8% | viability, T/C (second compound 0.316 µM, first compound 0.0949 µM) 72% | viability, T/C (second compound 0.316 µM, first compound 0.3 µM) 71.3% | viability, T/C (second compound 1 µM, first compound 0.000949 µM) 78.9% | viability, T/C (second compound 1 µM, first compound 0.003 µM) 75.2% | viability, T/C (second compound 1 µM, first compound 0.00949 µM) 68.8% | viability, T/C (second compound 1 µM, first compound 0.03 µM) 72% | viability, T/C (second compound 1 µM, first compound 0.0949 µM) 72.7% | viability, T/C (second compound 1 µM, first compound 0.3 µM) 61% | viability, T/C (second compound 3.16 µM, first compound 0.000949 µM) 61.2% | viability, T/C (second compound 3.16 µM, first compound 0.003 µM) 59.6% | viability, T/C (second compound 3.16 µM, first compound 0.00949 µM) 57.6% | viability, T/C (second compound 3.16 µM, first compound 0.03 µM) 58.8% | viability, T/C (second compound 3.16 µM, first compound 0.0949 µM) 55.7% | viability, T/C (second compound 3.16 µM, first compound 0.3 µM) 49.6% | viability, T/C (second compound 10 µM, first compound 0.000949 µM) 50.1% | viability, T/C (second compound 10 µM, first compound 0.003 µM) 45.6% | viability, T/C (second compound 10 µM, first compound 0.00949 µM) 48.6% | viability, T/C (second compound 10 µM, first compound 0.03 µM) 44% | viability, T/C (second compound 10 µM, first compound 0.0949 µM) 52% | viability, T/C (second compound 10 µM, first compound 0.3 µM) 36.2%
0.949 nM: IC50 (second compound 10 µM)
> 300 nM: IC50 (second compound 0.0316 µM) | IC50 (second compound 0.1 µM) | IC50 (second compound 0.316 µM) | IC50 (second compound 1 µM) | IC50 (second compound 3.16 µM)

NC1CCC(NC2CC2c2ccccc2)CC1 (centres undefined) + Cc1c(S(C)(=O)=O)c(-c2cc(F)cc(N3CCN(c4ccc(NS(=O)(=O)c5ccc(NC(CCN6CCC(C(=O)OCCCP(=O)(O)O)CC6)CSc6ccccc6)c(S(=O)(=O)C(F)(F)F)c5)cc4)CC3)c2)c(-c2ccc(Cl)cc2)n1C(C)C
inactive: viability, T/C (second compound 0.0316 µM, first compound 0.000316 µM) 88% | viability, T/C (second compound 0.0316 µM, first compound 0.001 µM) 82.3% | viability, T/C (second compound 0.0316 µM, first compound 0.00316 µM) 81.4% | viability, T/C (second compound 0.0316 µM, first compound 0.01 µM) 84.3% | viability, T/C (second compound 0.0316 µM, first compound 0.0316 µM) 88.5% | viability, T/C (second compound 0.0316 µM, first compound 0.1 µM) 80.5% | viability, T/C (second compound 0.1 µM, first compound 0.000316 µM) 94.4% | viability, T/C (second compound 0.1 µM, first compound 0.001 µM) 85.5% | viability, T/C (second compound 0.1 µM, first compound 0.00316 µM) 95.6% | viability, T/C (second compound 0.1 µM, first compound 0.01 µM) 82.7% | viability, T/C (second compound 0.1 µM, first compound 0.0316 µM) 87.7% | viability, T/C (second compound 0.1 µM, first compound 0.1 µM) 76.9% | viability, T/C (second compound 0.316 µM, first compound 0.000316 µM) 88.1% | viability, T/C (second compound 0.316 µM, first compound 0.001 µM) 81.7% | viability, T/C (second compound 0.316 µM, first compound 0.00316 µM) 77.9% | viability, T/C (second compound 0.316 µM, first compound 0.01 µM) 85% | viability, T/C (second compound 0.316 µM, first compound 0.0316 µM) 80% | viability, T/C (second compound 0.316 µM, first compound 0.1 µM) 80.2% | viability, T/C (second compound 1 µM, first compound 0.000316 µM) 75.3% | viability, T/C (second compound 1 µM, first compound 0.001 µM) 72.5% | viability, T/C (second compound 1 µM, first compound 0.00316 µM) 73.8% | viability, T/C (second compound 1 µM, first compound 0.01 µM) 71.9% | viability, T/C (second compound 1 µM, first compound 0.0316 µM) 71.9% | viability, T/C (second compound 1 µM, first compound 0.1 µM) 68.4% | viability, T/C (second compound 3.16 µM, first compound 0.000316 µM) 59.3% | viability, T/C (second compound 3.16 µM, first compound 0.001 µM) 58.6% | viability, T/C (second compound 3.16 µM, first compound 0.00316 µM) 59.3% | viability, T/C (second compound 3.16 µM, first compound 0.01 µM) 58.6% | viability, T/C (second compound 3.16 µM, first compound 0.0316 µM) 60.1% | viability, T/C (second compound 3.16 µM, first compound 0.1 µM) 56.1% | viability, T/C (second compound 10 µM, first compound 0.000316 µM) 45.1% | viability, T/C (second compound 10 µM, first compound 0.001 µM) 48.8% | viability, T/C (second compound 10 µM, first compound 0.00316 µM) 51.6% | viability, T/C (second compound 10 µM, first compound 0.01 µM) 49.1% | viability, T/C (second compound 10 µM, first compound 0.0316 µM) 52.3% | viability, T/C (second compound 10 µM, first compound 0.1 µM) 52.6%
> 100 nM: IC50 (second compound 0.0316 µM) | IC50 (second compound 0.1 µM) | IC50 (second compound 0.316 µM) | IC50 (second compound 1 µM) | IC50 (second compound 3.16 µM)
< 0.316 nM: IC50 (second compound 10 µM)
